Experimental data: patent US12559506B2, “Indazole based compounds and associated methods of use” (Arvinas Operations, Inc., priority 2021, dated 2026)
Read-outs that look alike come from different tables or passages of the source.

Molecular target: T1, LRRK2 (endogenous, HiBit tagged) (Homo sapiens, UniProt Q5S007)
T1 construct: endogenous in cells; host or cells: HEK293 cells with HiBit knock-in at the endogenous LRRK2 locus, stably expressing firefly luciferase
Assay: Endogenous LRRK2 degradation assay, endogenous gene C-terminally HiBit-tagged in HEK293 cells (Nano-Glo Dual Luciferase)
Type: cell-based
Summary of the method: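 LRRK2-HiBit quantified via Nano-Glo Dual Luciferase in HEK293 knock-in cells co-expressing firefly luciferase, after 24 h exposure to compound (1 μM final top, 1:3, 11 points). Values normalised to DMSO median per plate and curve-fitted; Alamar Blue viability run alongside.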

[1] = endogenous HiBit-tagged LRRK2 in HEK293 cells, 24 hours treatment, read-out: Endogenous WT DC50
[2] = endogenous HiBit-tagged LRRK2 in HEK293 cells, 24 hours treatment, read-out: Endogenous WT Dmax
[3] = endogenous HiBit-tagged LRRK2 in HEK293 cells, 24 hours treatment, read-out: **Endogenous WT Dmax (%)
[4] = endogenous HiBit-tagged LRRK2 in HEK293 cells, 24 hours treatment, read-out: *Endogenous WT DC50
[5] = endogenous HiBit-tagged LRRK2, HEK293 cells, 24 hours, read-out: **Endogenous WT Dmax (%)
[6] = endogenous HiBit-tagged LRRK2, HEK293 cells, 24 hours, read-out: *Endogenous WT DC50

T1 sequence (Q5S007 whole entry): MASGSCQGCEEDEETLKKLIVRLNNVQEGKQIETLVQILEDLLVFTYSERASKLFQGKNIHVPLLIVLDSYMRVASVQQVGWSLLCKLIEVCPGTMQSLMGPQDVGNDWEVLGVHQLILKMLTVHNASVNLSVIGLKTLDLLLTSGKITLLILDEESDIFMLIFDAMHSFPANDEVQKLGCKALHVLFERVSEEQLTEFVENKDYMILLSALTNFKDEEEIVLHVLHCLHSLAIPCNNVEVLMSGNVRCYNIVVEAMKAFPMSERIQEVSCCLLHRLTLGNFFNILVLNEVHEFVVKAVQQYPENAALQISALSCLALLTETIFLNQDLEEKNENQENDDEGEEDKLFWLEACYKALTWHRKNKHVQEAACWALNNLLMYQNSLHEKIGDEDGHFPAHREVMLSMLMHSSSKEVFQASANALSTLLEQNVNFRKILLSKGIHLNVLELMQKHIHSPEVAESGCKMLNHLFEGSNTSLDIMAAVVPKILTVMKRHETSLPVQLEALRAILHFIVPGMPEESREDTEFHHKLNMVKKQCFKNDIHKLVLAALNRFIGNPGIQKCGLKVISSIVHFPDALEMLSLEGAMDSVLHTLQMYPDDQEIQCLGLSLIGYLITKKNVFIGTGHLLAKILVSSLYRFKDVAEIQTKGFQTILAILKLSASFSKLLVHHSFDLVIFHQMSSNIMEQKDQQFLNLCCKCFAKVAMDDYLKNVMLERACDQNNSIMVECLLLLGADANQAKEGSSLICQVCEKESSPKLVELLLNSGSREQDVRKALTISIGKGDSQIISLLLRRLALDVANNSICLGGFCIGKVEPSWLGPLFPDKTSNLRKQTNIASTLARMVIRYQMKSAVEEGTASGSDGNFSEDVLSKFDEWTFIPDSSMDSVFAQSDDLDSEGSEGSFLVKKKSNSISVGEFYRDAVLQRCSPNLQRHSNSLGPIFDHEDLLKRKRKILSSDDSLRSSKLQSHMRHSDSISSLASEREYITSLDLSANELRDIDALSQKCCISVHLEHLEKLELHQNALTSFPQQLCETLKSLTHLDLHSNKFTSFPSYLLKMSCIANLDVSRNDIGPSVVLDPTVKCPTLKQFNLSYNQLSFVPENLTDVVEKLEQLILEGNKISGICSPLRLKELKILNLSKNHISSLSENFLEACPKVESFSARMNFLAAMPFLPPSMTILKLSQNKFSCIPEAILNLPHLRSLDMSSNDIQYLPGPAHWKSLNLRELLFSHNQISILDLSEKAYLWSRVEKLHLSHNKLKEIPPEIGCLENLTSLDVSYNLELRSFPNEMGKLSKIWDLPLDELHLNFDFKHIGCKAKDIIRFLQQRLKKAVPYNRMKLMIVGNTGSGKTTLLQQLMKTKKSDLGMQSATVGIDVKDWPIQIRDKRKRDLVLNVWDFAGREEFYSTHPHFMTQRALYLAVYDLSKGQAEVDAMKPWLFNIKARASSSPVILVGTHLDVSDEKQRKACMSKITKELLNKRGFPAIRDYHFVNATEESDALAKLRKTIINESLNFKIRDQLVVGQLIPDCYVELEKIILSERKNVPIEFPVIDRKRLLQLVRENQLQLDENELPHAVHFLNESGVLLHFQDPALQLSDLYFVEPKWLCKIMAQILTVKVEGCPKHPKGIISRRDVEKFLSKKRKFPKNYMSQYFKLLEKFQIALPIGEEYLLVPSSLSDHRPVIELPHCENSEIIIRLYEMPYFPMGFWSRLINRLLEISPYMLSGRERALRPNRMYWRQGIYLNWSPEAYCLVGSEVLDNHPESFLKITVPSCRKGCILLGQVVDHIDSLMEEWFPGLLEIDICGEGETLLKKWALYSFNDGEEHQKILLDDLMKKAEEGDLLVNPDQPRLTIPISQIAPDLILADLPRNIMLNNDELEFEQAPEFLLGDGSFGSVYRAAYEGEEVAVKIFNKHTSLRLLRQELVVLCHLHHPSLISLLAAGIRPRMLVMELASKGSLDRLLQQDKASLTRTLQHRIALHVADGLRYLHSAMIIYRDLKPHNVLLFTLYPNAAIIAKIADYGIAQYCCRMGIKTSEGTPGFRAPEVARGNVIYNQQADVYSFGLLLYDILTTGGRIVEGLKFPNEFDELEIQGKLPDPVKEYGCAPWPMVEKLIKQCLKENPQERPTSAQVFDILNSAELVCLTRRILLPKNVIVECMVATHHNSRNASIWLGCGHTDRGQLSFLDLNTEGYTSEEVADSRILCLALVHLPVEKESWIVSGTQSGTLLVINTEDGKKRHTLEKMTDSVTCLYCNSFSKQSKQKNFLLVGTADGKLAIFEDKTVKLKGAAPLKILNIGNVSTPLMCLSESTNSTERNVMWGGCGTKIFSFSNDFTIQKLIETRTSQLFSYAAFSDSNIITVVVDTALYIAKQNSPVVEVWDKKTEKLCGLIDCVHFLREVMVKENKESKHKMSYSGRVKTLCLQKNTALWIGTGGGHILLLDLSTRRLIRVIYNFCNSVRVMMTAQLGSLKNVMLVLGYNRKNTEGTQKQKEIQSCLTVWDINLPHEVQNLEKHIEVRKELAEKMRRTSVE

SMILES | DC50 [1] [nM] | Dmax [2] [%] | other results
CC1(Oc2cc3c(-c4cc(N5CCC(O[C@H]6C[C@@H](OC7CCN(c8ccc9c(c8F)CN(C8CCC(=O)NC8=O)C9=O)CC7)C6)CC5)ncn4)n[nH]c3cn2)CC1 (stereo partly shown) [Compound 233, 3-(4-fluoro-1-oxo-5-{4-[(1s,3s)-3-[(1-{6-[5-(1-methylcyclopropoxy)-1H-pyrazolo[3,4-c]pyridin-3-yl]pyrimidin-4-yl}piperidin-4-yl)oxy]cyclobutoxy]piperidin-1-yl}-2,3-dihydro-1H-isoindol-2-yl)piperidine-2,6-dione] | < 10 | 50 to 70 | 
CC1(Oc2ccc3n[nH]c(-c4cc(N5CCC(CN6CCN(CC7CCN(c8ccc(F)c9c8CN(C8CCC(=O)NC8=O)C9=O)CC7)CC6)CC5)ncn4)c3c2)CC1 (stereo not shown) [Compound 214, 3-[7-fluoro-4-[4-[[4-[[1-[6-[5-(1-methylcyclopropoxy)-2H-indazol-3-yl]pyrimidin-4-yl]-4-piperidyl]methyl]piperazin-1-yl]methyl]-1-piperidyl]-1-oxo-isoindolin-2-yl]piperidine-2,6-dione] | < 10 | ≥ 70 | 
CC1(Oc2cc3c(-c4cc(N5CCN(C[C@H]6CC[C@H](OC7CCN(c8ccc9c(c8F)CN(C8CCC(=O)NC8=O)C9=O)CC7)CC6)CC5)ncn4)n[nH]c3cc2F)CC1 (stereo partly shown) [Compound 260, 3-[4-fluoro-1-oxo-5-(4-{[(1r,4r)-4-[(4-{6-[6-fluoro-5-(1-methylcyclopropoxy)-1H-indazol-3-yl]pyrimidin-4-yl}piperazin-1-yl)methyl]cyclohexyl]oxy}piperidin-1-yl)-2,3-dihydro-1H-isoindol-2-yl]piperidine-2,6-dione] |  |  | Dmax [3]: 50 to 70%; DC50 [4]: < 10 nM
CC1(Oc2cc3c(-c4cc(N5CCC(CN6CCC(F)(CN7CCN(c8ccc9c(c8F)CN(C8CCC(=O)NC8=O)C9=O)CC7)CC6)CC5)ncn4)n[nH]c3cc2F)CC1 (stereo not shown) [Compound 199, 3-{4-fluoro-5-[4-({4-fluoro-1-[(1-{6-[6-fluoro-5-(1-methylcyclopropoxy)-1H-indazol-3-yl]pyrimidin-4-yl}piperidin-4-yl)methyl]piperidin-4-yl}methyl)piperazin-1-yl]-1-oxo-2,3-dihydro-1H-isoindol-2-yl}piperidine-2,6-dione] |  |  | Dmax [5]: ≥ 70%; DC50 [6]: < 10 nM
CC1(Oc2ccc3[nH]nc(-c4cc(N5CCC(O[C@H]6CC[C@H](CN7CCN(c8ccc9c(c8Cl)CN(C8CCC(=O)NC8=O)C9=O)CC7)CC6)CC5)ncn4)c3c2)CC1 (stereo partly shown) [Compound 249, 3-[4-chloro-1-oxo-5-(4-{[(1r,4r)-4-[(1-{6-[5-(1-methylcyclopropoxy)-1H-indazol-3-yl]pyrimidin-4-yl}piperidin-4-yl)oxy]cyclohexyl]methyl}piperazin-1-yl)-2,3-dihydro-1H-isoindol-2-yl]piperidine-2,6-dione] | < 10 | 50 to 70 | 
CC1(Oc2ccc3[nH]nc(-c4cc(N5CCC(O[C@H]6CC[C@H](CN7CCN(c8ccc9c(c8F)CN(C8CCC(=O)NC8=O)C9=O)C(C)(C)C7)CC6)CC5)ncn4)c3c2)CC1 (stereo partly shown) [Compound 378, 3-[5-(2,2-dimethyl-4-{[(1r,4r)-4-[(1-{6-[5-(1-methylcyclopropoxy)-1H-indazol-3-yl]pyrimidin-4-yl}piperidin-4-yl)oxy]cyclohexyl]methyl}piperazin-1-yl)-4-fluoro-1-oxo-2,3-dihydro-1H-isoindol-2-yl]piperidine-2,6-dione] | < 10 | 50 to 70 | 
CC1(Oc2ccc3n[nH]c(-c4cc(N5CCC(O[C@H]6C[C@H](N7CC[C@@H](c8ccc9c(c8)CN(C8CCC(=O)NC8=O)C9=O)[C@@H](F)C7)C6)CC5)ncn4)c3c2)CC1 (stereo partly shown) [Compound 342, 3-{5-[(3r,4s)-3-fluoro-1-[(1r,3r)-3-[(1-{6-[5-(1-methylcyclopropoxy)-2H-indazol-3-yl]pyrimidin-4-yl}piperidin-4-yl)oxy]cyclobutyl]piperidin-4-yl]-1-oxo-2,3-dihydro-1H-isoindol-2-yl}piperidine-2,6-dione] |  |  | Dmax [3]: 50 to 70%; DC50 [4]: < 10 nM
CC1(Oc2ccc3n[nH]c(-c4cc(N5CCC(O[C@H]6CC[C@H](CN7CCN(c8cc9c(cc8F)C(=O)N(C8CCC(=O)NC8=O)C9)CC7)CC6)CC5)ncn4)c3c2)CC1 (stereo partly shown) [Compound 208, 3-[6-fluoro-5-[4-[[4-[[1-[6-[5-(1-methylcyclopropoxy)-2H-indazol-3-yl]pyrimidin-4-yl]-4-piperidyl]oxy]cyclohexyl]methyl]piperazin-1-yl]-1-oxo-isoindolin-2-yl]piperidine-2,6-dione] | < 10 | 50 to 70 | 
CC1(Oc2cc3c(-c4cc(N5CCN(C[C@H]6CC[C@H](CN7CCN(c8ccc9c(c8F)CN(C8CCC(=O)NC8=O)C9=O)CC7)CC6)CC5)ncn4)n[nH]c3cc2F)CC1 (stereo partly shown) [Compound 203, 3-[4-fluoro-1-oxo-5-(4-{[(1r,4r)-4-[(4-{6-[6-fluoro-5-(1-methylcyclopropoxy)-1H-indazol-3-yl]pyrimidin-4-yl}piperazin-1-yl)methyl]cyclohexyl]methyl}piperazin-1-yl)-2,3-dihydro-1H-isoindol-2-yl]piperidine-2,6-dione] | < 10 | ≥ 70 | 
COc1c(N2CCC(CN3CCN(CC4CCN(c5cc(-c6n[nH]c7cc(F)c(OC8(C)CC8)cc67)ncn5)CC4)CC3(C)C)CC2)ccc2c1CN(C1CCC(=O)NC1=O)C2=O (stereo not shown) [Compound 349, 3-{5-[4-({4-[(1-{6-[6-fluoro-5-(1-methylcyclopropoxy)-1H-indazol-3-yl]pyrimidin-4-yl}piperidin-4-yl)methyl]-2,2-dimethylpiperazin-1-yl}methyl)piperidin-1-yl]-4-methoxy-1-oxo-2,3-dihydro-1H-isoindol-2-yl}piperidine-2,6-dione] |  |  | DC50 [4]: < 10 nM
C[C@H]1CN(c2cc(-c3[nH]nc4ccc(OC5(C)CC5)cc34)ncn2)CCN1CCN1CCC(CN2CCN(c3ccc4c(c3F)CN(C3CCC(=O)NC3=O)C4=O)CC2)CC1 (stereo partly drawn) [Compound 184, 3-[4-fluoro-5-[4-[[1-[2-[(2S)-2-methyl-4-[6-[5-(1-methylcyclopropoxy)-2H-indazol-3-yl]pyrimidin-4-yl]piperazin-1-yl]ethyl]-4-piperidyl]methyl]piperazin-1-yl]-1-oxo-isoindolin-2-yl]piperidine-2,6-dione] |  |  | Dmax [5]: ≥ 70%; DC50 [6]: < 10 nM
CC1(Oc2cc3c(-c4cc(N5CCC(CN6CCC(F)(CC7CCN(c8ccc9c(c8F)CN(C8CCC(=O)NC8=O)C9=O)CC7)CC6)CC5)ncn4)n[nH]c3cc2F)CC1 (stereo not shown) [Compound 232, 3-{4-fluoro-5-[4-({4-fluoro-1-[(1-{6-[6-fluoro-5-(1-methylcyclopropoxy)-1H-indazol-3-yl]pyrimidin-4-yl}piperidin-4-yl)methyl]piperidin-4-yl}methyl)piperidin-1-yl]-1-oxo-2,3-dihydro-1H-isoindol-2-yl}piperidine-2,6-dione] | < 10 | 50 to 70 | 
CC1(Oc2cc3c(-c4cc(N5CCC(O[C@H]6CC[C@H](CN7CCN(c8ccc9c(c8F)CN(C8CCC(=O)NC8=O)C9=O)CC7)CC6)CC5)ncn4)n[nH]c3cn2)CC1 (stereo partly shown) [Compound 254, 3-[4-fluoro-1-oxo-5-(4-{[(1r,4r)-4-[(1-{6-[5-(1-methylcyclopropoxy)-1H-pyrazolo[3,4-c]pyridin-3-yl]pyrimidin-4-yl}piperidin-4-yl)oxy]cyclohexyl]methyl}piperazin-1-yl)-2,3-dihydro-1H-isoindol-2-yl]piperidine-2,6-dione] | < 10 | 50 to 70 | 
C[C@H]1CN(c2cc(-c3n[nH]c4ccc(OC5(C)CC5)cc34)ncn2)CCN1CC1(F)CN(CC2CCN(c3ccc4c(c3)C(=O)N(C3CCC(=O)NC3=O)C4=O)CC2)C1 (stereo partly drawn) [Compound 123, 2-(2,6-dioxopiperidin-3-yl)-5-{4-[(3-fluoro-3-{[(2S)-2-methyl-4-{6-[5-(1-methylcyclopropoxy)-1H-indazol-3-yl]pyrimidin-4-yl}piperazin-1-yl]methyl}azetidin-1-yl)methyl]piperidin-1-yl}-2,3-dihydro-1H-isoindole-1,3-dione] |  |  | Dmax (endogenous HiBit-tagged LRRK2 in HEK293 cells, 24 hours, read-out: **Endogenous WT Dmax (%)): < 50%; DC50 (endogenous HiBit-tagged LRRK2 in HEK293 cells, 24 hours, read-out: *Endogenous WT DC50): < 10 nM
CC1(Oc2cc3c(-c4cc(N5CCC(CN6CC[C@@H](CN7CCN(c8ccc9c(c8F)CN(C8CCC(=O)NC8=O)C9=O)CC7)[C@@H](F)C6)CC5)ncn4)n[nH]c3cc2F)CC1 (stereo partly shown) [Compound 294, 3-[4-fluoro-5-(4-{[(3r,4s)-3-fluoro-1-[(1-{6-[6-fluoro-5-(1-methylcyclopropoxy)-1H-indazol-3-yl]pyrimidin-4-yl}piperidin-4-yl)methyl]piperidin-4-yl]methyl}piperazin-1-yl)-1-oxo-2,3-dihydro-1H-isoindol-2-yl]piperidine-2,6-dione] |  |  | Dmax [3]: 50 to 70%; DC50 [4]: < 10 nM
CC1(Oc2ccc3[nH]nc(-c4ccnc(N5CCC(O[C@H]6CC[C@H](CN7CCN(c8ccc9c(c8F)CN(C8CCC(=O)NC8=O)C9=O)CC7)CC6)CC5)c4)c3n2)CC1 (stereo partly shown) [Compound 375, 3-(4-fluoro-5-(4-(((1r,4r)-4-((1-(4-(5-(1-methylcyclopropoxy)-1H-pyrazolo[4,3-b]pyridin-3-yl)pyridin-2-yl)piperidin-4-yl)oxy)cyclohexyl)methyl)piperazin-1-yl)-1-oxoisoindolin-2-yl)piperidine-2,6-dione] | < 10 | 50 to 70 | 
